Source: US12023333B2, “Phenyl-sulfamoyl.benzoyc acids as ERAP1 modulators” (GREY WOLF THERAPEUTICS LIMITED, priority 2019, dated 2024)
pIC50: −log10 of the molar value.

Target: T1, Purified ERAP1(37-941)-10His (ERAP1) (Homo sapiens, UniProt Q9NZ08)
T1 construct: Purified ERAP1(37-941)-10His (ERAP1); 10His (C)
Test: ERAP1 mediated hydrolysis of an amide substrate measured in a biochemical system (10-mer decapeptide substrate)
Conditions: 10-mer substrate, 23° C. for 1 h, excitation 279 nm and emission 355 nm; read-out: IC50 vs Decapeptide WRVYEKC(Dnp)ALK-acid (where Dnp is Dinitrophenyl maleimide) (10-mer)
Summary of the method: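 ERAP1(37-941)-10His preincubated with compound in 25 mM Bis-tris propane, 0.05% HPMC, pH 7.75, then reacted 1 h at 23 °C with 10-mer WRVYEKC(Dnp)ALK (100 μM solution added in equal volume). Fluorescence read at ex 279/em 355 nm; IC50 from 4-parameter fit.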

T1 sequence (Q9NZ08 37-941): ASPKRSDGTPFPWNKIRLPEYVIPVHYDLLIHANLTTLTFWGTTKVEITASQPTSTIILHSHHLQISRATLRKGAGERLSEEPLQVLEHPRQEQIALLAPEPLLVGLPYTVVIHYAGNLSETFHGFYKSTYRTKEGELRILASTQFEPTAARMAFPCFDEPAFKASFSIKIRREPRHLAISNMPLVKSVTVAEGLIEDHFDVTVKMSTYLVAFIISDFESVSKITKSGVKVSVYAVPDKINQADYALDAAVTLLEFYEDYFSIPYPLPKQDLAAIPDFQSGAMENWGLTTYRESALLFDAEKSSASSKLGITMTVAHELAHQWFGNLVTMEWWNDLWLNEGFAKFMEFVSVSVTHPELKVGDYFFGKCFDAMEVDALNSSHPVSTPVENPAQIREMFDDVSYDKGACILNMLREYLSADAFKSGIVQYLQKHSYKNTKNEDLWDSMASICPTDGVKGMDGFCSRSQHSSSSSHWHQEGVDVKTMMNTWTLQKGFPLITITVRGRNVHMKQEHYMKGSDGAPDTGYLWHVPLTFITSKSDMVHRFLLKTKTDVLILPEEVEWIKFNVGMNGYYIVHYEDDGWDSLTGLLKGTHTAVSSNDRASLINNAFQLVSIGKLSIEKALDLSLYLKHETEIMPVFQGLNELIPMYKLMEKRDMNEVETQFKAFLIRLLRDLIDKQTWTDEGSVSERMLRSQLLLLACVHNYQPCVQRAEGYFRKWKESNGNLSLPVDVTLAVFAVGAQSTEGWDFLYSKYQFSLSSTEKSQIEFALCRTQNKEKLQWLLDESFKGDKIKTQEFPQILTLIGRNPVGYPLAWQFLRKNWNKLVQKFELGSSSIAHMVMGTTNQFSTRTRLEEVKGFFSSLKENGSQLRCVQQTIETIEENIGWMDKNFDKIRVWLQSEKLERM

| Structure (SMILES) | pIC50 |
| --- | --- |
| COc1ccc(C(=O)O)cc1S(=O)(=O)Nc1cc(C(F)(F)F)c(Cl)cc1-n1cccc1 [Example 158, 3-(N-(4-chloro-2-(pyrrol-1-yl)-5-(trifluoromethyl)phenyl)sulfamoyl)-4-methoxybenzoic acid] | > 6.30 |
| CCc1ccc(C(=O)O)cc1S(=O)(=O)Nc1cc(C(F)(F)F)ccc1-c1cncs1 [Example 129, 4-ethyl-3-(N-(2-(thiazol-5-yl)-5-(trifluoromethyl)phenyl)sulfamoyl)benzoic acid] | > 6.30 |
| Cc1oncc1-c1cc(NS(=O)(=O)c2cc(C(=O)O)ccc2C2CC2)c(-n2cccc2)cc1Cl [Example 205, 3-(N-(4-chloro-5-(5-methylisoxazol-4-yl)-2-(pyrrol-1-yl)phenyl)sulfamoyl)-4-cyclopropylbenzoic acid] | > 6.30 |
| CCc1ccc(C(=O)O)cc1S(=O)(=O)Nc1cc(S(C)(=O)=O)ccc1-c1ccccn1 [Example 71, 4-ethyl-3-(N-(5-(methylsulfonyl)-2-(pyridin-2-yl)phenyl)sulfamoyl)benzoic acid] | > 6.30 |
| O=C(O)c1ccc(C2CC2)c(S(=O)(=O)Nc2cc(C(F)(F)F)c(F)cc2-n2cccc2)c1 [Example 155, 4-cyclopropyl-3-(N-(4-fluoro-2-(pyrrol-1-yl)-5-(trifluoromethyl)phenyl)sulfamoyl)benzoic acid] | > 6.30 |
| COc1ccc(C(=O)O)cc1S(=O)(=O)Nc1cc(C(F)(F)F)ccc1-c1ccc(C#N)cc1 [Example 16, 3-(N-(4′-cyano-4-(trifluoromethyl)-[1,1′-biphenyl]-2-yl)sulfamoyl)-4-methoxybenzoic acid] | > 5.30 |
| CS(=O)(=O)c1ccc(-c2cccs2)c(NS(=O)(=O)c2cc(C(=O)O)ccc2C2CC2)c1 [Example 74, 4-cyclopropyl-3-(N-(5-(methylsulfonyl)-2-(thiophen-2-yl)phenyl)sulfamoyl) benzoic acid] | > 6.30 |
| O=C(O)c1ccc(C2CC2)c(S(=O)(=O)Nc2cc(-c3ccns3)ccc2-c2cccc(F)c2)c1 [Example 137, 4-cyclopropyl-3-(N-(3′-fluoro-4-(isothiazol-5-yl)-[1,1′-biphenyl]-2-yl)sulfamoyl)benzoic acid] | > 6.30 |
| CCc1ccc(C(=O)O)cc1S(=O)(=O)Nc1cc(C(F)(F)F)ccc1-c1cccc(C#N)c1 [Example 21, 3-(N-(3′-cyano-4-(trifluoromethyl)-[1,1′-biphenyl]-2-yl)sulfamoyl)-4-ethylbenzoic acid] | > 6.30 |
| N#Cc1ccc(-c2ncccn2)c(NS(=O)(=O)c2cc(C(=O)O)ccc2C2CC2)c1 [Example 169, 3-(N-(5-cyano-2-(pyrimidin-2-yl)phenyl)sulfamoyl)-4-cyclopropylbenzoic acid] | > 6.30 |

The next lines start with the values.

| pIC50 | Structure (SMILES) |
| --- | --- |
| > 6.30 | Cc1ccc(-c2ccc(C#N)cc2NS(=O)(=O)c2cc(C(=O)O)ccc2C2CC2)s1 [Example 95, 3-(N-(5-cyano-2-(5-methylthiophen-2-yl)phenyl)sulfamoyl)-4-cyclopropylbenzoic acid] |
| > 6.30 | O=C(O)c1ccc(C2CC2)c(S(=O)(=O)Nc2cc(C(F)(F)F)ccc2-c2cccnc2)c1 [Example 98, 4-cyclopropyl-3-(N-(2-(pyridin-3-yl)-5-(trifluoromethyl)phenyl)sulfamoyl)benzoic acid] |
| > 6.30 | COc1ccc(C(=O)O)cc1S(=O)(=O)Nc1cc(C(F)(F)F)ccc1-c1cccnc1 [Example 2, 4-methoxy-3-(N-(2-(pyridin-3-yl)-5-(trifluoromethyl)phenyl)sulfamoyl)benzoic acid] |
| > 6.30 | O=C(O)c1ccc(C2CC2)c(S(=O)(=O)Nc2cc(C(F)(F)F)ccc2-c2cccc(F)c2)c1 [Example 92, 4-cyclopropyl-3-(N-(3′-fluoro-4-(trifluoromethyl)-[1,1′-biphenyl]-2-yl)sulfamoyl)benzoic acid] |
| > 6.30 | COc1ccc(C(=O)O)cc1S(=O)(=O)Nc1cc(C#N)ccc1-c1ccccn1 [Example 45, 3-(N-(5-cyano-2-(pyridin-2-yl)phenyl)sulfamoyl)-4-methoxybenzoic acid] |
